{"source": "the supplement of paper PMC10307832", "assay_in_all_cases": "relative viability (nuclei count vs DMSO), 5 days (fraction); higher = more cells survive", "key": {"COR-L23": {"test_system": "COR-L23", "in_short": "(§1)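 Cells from lung cancer lines were seeded into 1536-well plates and, one day later, dosed by pin tool. Treatments were either a single drug or a fixed dose of an anchor drug with five library-drug doses (not always all listed) in √10 steps. After 5 days, nuclei were stained in a one-step fixation (final 0.05% Triton X-100, 1% formaldehyde, 1 ug/ml Hoechst) and counted on 4× images, and relative viability is the treated-to-vehicle nuclei ratio, as the median of duplicate plates.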"}, "ChaGo-K-1": {"test_system": "ChaGo-K-1", "in_short": "as §1"}, "EPLC-272H": {"test_system": "EPLC-272H", "in_short": "as §1"}, "HCC-15": {"test_system": "HCC-15", "in_short": "as §1"}, "HCC-366": {"test_system": "HCC-366", "in_short": "as §1"}, "HCC-44": {"test_system": "HCC-44", "in_short": "as §1"}, "HCC-827": {"test_system": "HCC-827", "in_short": "as §1"}, "NCI-H1355": {"test_system": "NCI-H1355", "in_short": "as §1"}, "NCI-H1734": {"test_system": "NCI-H1734", "in_short": "as §1"}, "NCI-H1793": {"test_system": "NCI-H1793", "in_short": "as §1"}, "NCI-H1944": {"test_system": "NCI-H1944", "in_short": "as §1"}, "NCI-H2009": {"test_system": "NCI-H2009", "in_short": "as §1"}, "NCI-H2023": {"test_system": "NCI-H2023", "in_short": "as §1"}, "NCI-H2085": {"test_system": "NCI-H2085", "in_short": "as §1"}, "NCI-H2228": {"test_system": "NCI-H2228", "in_short": "as §1"}, "NCI-H2347": {"test_system": "NCI-H2347", "in_short": "as §1"}, "NCI-H2405": {"test_system": "NCI-H2405", "in_short": "as §1"}, "NCI-H3122": {"test_system": "NCI-H3122", "in_short": "as §1"}, "PC-14": {"test_system": "PC-14", "in_short": "as §1"}, "SW 1573": {"test_system": "SW 1573", "in_short": "as §1"}}}
{"smiles": "Cc1csc(=NC2CCCCC2)n1/N=C/c1ccc(O)c(O)c1O", "note": "[MIM1] + CC1(C)CCC(c2ccc(Cl)cc2)=C(CN2CCN(c3ccc(C(=O)NS(=O)(=O)c4ccc(N[C@H](CCN5CCOCC5)CSc5ccccc5)c(S(=O)(=O)C(F)(F)F)c4)cc3)CC2)C1 [Navitoclax] (partner 0.5 µM)", "values": [{"measurement": "relative viability", "setting": "COR-L23; first compound 0.2 µM", "result": 0.966}, {"measurement": "relative viability", "setting": "COR-L23; first compound 0.6325 µM", "result": 1.08}, {"measurement": "relative viability", "setting": "COR-L23; first compound 2 µM", "result": 0.997}, {"measurement": "relative viability", "setting": "COR-L23; first compound 6.325 µM", "result": 0.774}, {"measurement": "relative viability", "setting": "COR-L23; first compound 20 µM", "result": 0.515}, {"measurement": "relative viability", "setting": "ChaGo-K-1; first compound 0.2 µM", "result": 1.14}, {"measurement": "relative viability", "setting": "ChaGo-K-1; first compound 0.6325 µM", "result": 0.741}, {"measurement": "relative viability", "setting": "ChaGo-K-1; first compound 2 µM", "result": 0.943}, {"measurement": "relative viability", "setting": "ChaGo-K-1; first compound 6.325 µM", "result": 0.717}, {"measurement": "relative viability", "setting": "ChaGo-K-1; first compound 20 µM", "result": 0.31}, {"measurement": "relative viability", "setting": "EPLC-272H; first compound 0.2 µM", "result": 1.11}, {"measurement": "relative viability", "setting": "EPLC-272H; first compound 0.6325 µM", "result": 1.04}, {"measurement": "relative viability", "setting": "EPLC-272H; first compound 2 µM", "result": 1.2}, {"measurement": "relative viability", "setting": "EPLC-272H; first compound 6.325 µM", "result": 1}, {"measurement": "relative viability", "setting": "EPLC-272H; first compound 20 µM", "result": 0.199}, {"measurement": "relative viability", "setting": "HCC-15; first compound 0.2 µM", "result": 0.682}, {"measurement": "relative viability", "setting": "HCC-15; first compound 0.6325 µM", "result": 0.693}, {"measurement": "relative viability", "setting": "HCC-15; first compound 2 µM", "result": 0.689}, {"measurement": "relative viability", "setting": "HCC-15; first compound 6.325 µM", "result": 0.42}, {"measurement": "relative viability", "setting": "HCC-15; first compound 20 µM", "result": 0.382}, {"measurement": "relative viability", "setting": "HCC-366; first compound 0.2 µM", "result": 1.06}, {"measurement": "relative viability", "setting": "HCC-366; first compound 0.6325 µM", "result": 0.943}, {"measurement": "relative viability", "setting": "HCC-366; first compound 2 µM", "result": 0.809}, {"measurement": "relative viability", "setting": "HCC-366; first compound 6.325 µM", "result": 1}, {"measurement": "relative viability", "setting": "HCC-366; first compound 20 µM", "result": 0.0645}, {"measurement": "relative viability", "setting": "HCC-44; first compound 0.2 µM", "result": 0.93}, {"measurement": "relative viability", "setting": "HCC-44; first compound 0.6325 µM", "result": 1.01}, {"measurement": "relative viability", "setting": "HCC-44; first compound 2 µM", "result": 0.74}, {"measurement": "relative viability", "setting": "HCC-44; first compound 6.325 µM", "result": 0.612}, {"measurement": "relative viability", "setting": "HCC-44; first compound 20 µM", "result": 0.277}, {"measurement": "relative viability", "setting": "HCC-827; first compound 0.2 µM", "result": 0.961}, {"measurement": "relative viability", "setting": "HCC-827; first compound 0.6325 µM", "result": 1.01}, {"measurement": "relative viability", "setting": "HCC-827; first compound 2 µM", "result": 0.977}, {"measurement": "relative viability", "setting": "HCC-827; first compound 6.325 µM", "result": 0.39}, {"measurement": "relative viability", "setting": "HCC-827; first compound 20 µM", "result": 0.696}, {"measurement": "relative viability", "setting": "NCI-H1355; first compound 0.2 µM", "result": 0.977}, {"measurement": "relative viability", "setting": "NCI-H1355; first compound 0.6325 µM", "result": 1.03}, {"measurement": "relative viability", "setting": "NCI-H1355; first compound 2 µM", "result": 1.07}, {"measurement": "relative viability", "setting": "NCI-H1355; first compound 6.325 µM", "result": 0.793}, {"measurement": "relative viability", "setting": "NCI-H1355; first compound 20 µM", "result": 0.95}, {"measurement": "relative viability", "setting": "NCI-H1734; first compound 0.2 µM", "result": 0.807}, {"measurement": "relative viability", "setting": "NCI-H1734; first compound 0.6325 µM", "result": 0.908}, {"measurement": "relative viability", "setting": "NCI-H1734; first compound 2 µM", "result": 0.783}, {"measurement": "relative viability", "setting": "NCI-H1734; first compound 6.325 µM", "result": 0.467}, {"measurement": "relative viability", "setting": "NCI-H1734; first compound 20 µM", "result": 0.202}, {"measurement": "relative viability", "setting": "NCI-H1793; first compound 0.2 µM", "result": 0.438}, {"measurement": "relative viability", "setting": "NCI-H1793; first compound 0.6325 µM", "result": 0.546}, {"measurement": "relative viability", "setting": "NCI-H1793; first compound 2 µM", "result": 0.436}, {"measurement": "relative viability", "setting": "NCI-H1793; first compound 6.325 µM", "result": 0.475}, {"measurement": "relative viability", "setting": "NCI-H1793; first compound 20 µM", "result": 0.47}, {"measurement": "relative viability", "setting": "NCI-H1944; first compound 0.2 µM", "result": 0.985}, {"measurement": "relative viability", "setting": "NCI-H1944; first compound 0.6325 µM", "result": 1.04}, {"measurement": "relative viability", "setting": "NCI-H1944; first compound 2 µM", "result": 0.845}, {"measurement": "relative viability", "setting": "NCI-H1944; first compound 6.325 µM", "result": 0.938}, {"measurement": "relative viability", "setting": "NCI-H1944; first compound 20 µM", "result": 1.11}, {"measurement": "relative viability", "setting": "NCI-H2009; first compound 0.2 µM", "result": 1.14}, {"measurement": "relative viability", "setting": "NCI-H2009; first compound 0.6325 µM", "result": 1.19}, {"measurement": "relative viability", "setting": "NCI-H2009; first compound 2 µM", "result": 1.22}, {"measurement": "relative viability", "setting": "NCI-H2009; first compound 6.325 µM", "result": 0.999}, {"measurement": "relative viability", "setting": "NCI-H2009; first compound 20 µM", "result": 0.826}, {"measurement": "relative viability", "setting": "NCI-H2023; first compound 0.2 µM", "result": 0.992}, {"measurement": "relative viability", "setting": "NCI-H2023; first compound 0.6325 µM", "result": 1.03}, {"measurement": "relative viability", "setting": "NCI-H2023; first compound 2 µM", "result": 0.91}, {"measurement": "relative viability", "setting": "NCI-H2023; first compound 6.325 µM", "result": 0.683}, {"measurement": "relative viability", "setting": "NCI-H2023; first compound 20 µM", "result": 0.432}, {"measurement": "relative viability", "setting": "NCI-H2085; first compound 0.2 µM", "result": 1.17}, {"measurement": "relative viability", "setting": "NCI-H2085; first compound 0.6325 µM", "result": 1.08}, {"measurement": "relative viability", "setting": "NCI-H2085; first compound 2 µM", "result": 1.12}, {"measurement": "relative viability", "setting": "NCI-H2085; first compound 6.325 µM", "result": 1.02}, {"measurement": "relative viability", "setting": "NCI-H2085; first compound 20 µM", "result": 1.01}, {"measurement": "relative viability", "setting": "NCI-H2228; first compound 0.2 µM", "result": 0.959}, {"measurement": "relative viability", "setting": "NCI-H2228; first compound 0.6325 µM", "result": 0.916}, {"measurement": "relative viability", "setting": "NCI-H2228; first compound 2 µM", "result": 0.874}, {"measurement": "relative viability", "setting": "NCI-H2228; first compound 6.325 µM", "result": 0.274}, {"measurement": "relative viability", "setting": "NCI-H2228; first compound 20 µM", "result": 0.157}, {"measurement": "relative viability", "setting": "NCI-H2347; first compound 0.2 µM", "result": 0.661}, {"measurement": "relative viability", "setting": "NCI-H2347; first compound 0.6325 µM", "result": 0.776}, {"measurement": "relative viability", "setting": "NCI-H2347; first compound 2 µM", "result": 0.812}, {"measurement": "relative viability", "setting": "NCI-H2347; first compound 6.325 µM", "result": 0.544}, {"measurement": "relative viability", "setting": "NCI-H2347; first compound 20 µM", "result": 0.408}, {"measurement": "relative viability", "setting": "NCI-H2405; first compound 0.2 µM", "result": 0.946}, {"measurement": "relative viability", "setting": "NCI-H2405; first compound 0.6325 µM", "result": 0.999}, {"measurement": "relative viability", "setting": "NCI-H2405; first compound 2 µM", "result": 0.884}, {"measurement": "relative viability", "setting": "NCI-H2405; first compound 6.325 µM", "result": 0.798}, {"measurement": "relative viability", "setting": "NCI-H2405; first compound 20 µM", "result": 0.35}, {"measurement": "relative viability", "setting": "NCI-H3122; first compound 0.2 µM", "result": 1.06}, {"measurement": "relative viability", "setting": "NCI-H3122; first compound 0.6325 µM", "result": 1.09}, {"measurement": "relative viability", "setting": "NCI-H3122; first compound 2 µM", "result": 1.1}, {"measurement": "relative viability", "setting": "NCI-H3122; first compound 6.325 µM", "result": 0.761}, {"measurement": "relative viability", "setting": "NCI-H3122; first compound 20 µM", "result": 0.426}, {"measurement": "relative viability", "setting": "PC-14; first compound 0.2 µM", "result": 1.02}, {"measurement": "relative viability", "setting": "PC-14; first compound 0.6325 µM", "result": 1.03}, {"measurement": "relative viability", "setting": "PC-14; first compound 2 µM", "result": 0.988}, {"measurement": "relative viability", "setting": "PC-14; first compound 6.325 µM", "result": 0.894}, {"measurement": "relative viability", "setting": "PC-14; first compound 20 µM", "result": 0.133}, {"measurement": "relative viability", "setting": "SW 1573; first compound 0.2 µM", "result": 0.973}, {"measurement": "relative viability", "setting": "SW 1573; first compound 0.6325 µM", "result": 0.967}, {"measurement": "relative viability", "setting": "SW 1573; first compound 2 µM", "result": 1.08}, {"measurement": "relative viability", "setting": "SW 1573; first compound 6.325 µM", "result": 0.909}, {"measurement": "relative viability", "setting": "SW 1573; first compound 20 µM", "result": 0.549}]}
